Calls of active or inactive are those of the source. Cut-off read from the data, not from the text of the source, for most assays here: actives have a measured EC50 and inactives only a lower limit.
Experiments:
[1] = target: T1, Serine/threonine-protein phosphatase (Candida dubliniensis (strain CD36 / CBS 7987 / NCPF 3949 / NRRLY-17841) (Yeast), UniProt B9W6M3); test: blockers of CaCl2-induced CDRE-lacZ signaling – S. cerevisiae, luminescence, secondary, dose response (AID 2388); format: functional, cell-based;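 note: yeast reporter cells carrying a calcineurin-responsive lacZ construct stimulated with calcium chloride; luminescent beta-galactosidase reporter signal in whole cells rather than isolated phosphatase activity; potency for inhibition where a drop in reporter signal means calcineurin blockade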
T1 sequence (B9W6M3 whole entry): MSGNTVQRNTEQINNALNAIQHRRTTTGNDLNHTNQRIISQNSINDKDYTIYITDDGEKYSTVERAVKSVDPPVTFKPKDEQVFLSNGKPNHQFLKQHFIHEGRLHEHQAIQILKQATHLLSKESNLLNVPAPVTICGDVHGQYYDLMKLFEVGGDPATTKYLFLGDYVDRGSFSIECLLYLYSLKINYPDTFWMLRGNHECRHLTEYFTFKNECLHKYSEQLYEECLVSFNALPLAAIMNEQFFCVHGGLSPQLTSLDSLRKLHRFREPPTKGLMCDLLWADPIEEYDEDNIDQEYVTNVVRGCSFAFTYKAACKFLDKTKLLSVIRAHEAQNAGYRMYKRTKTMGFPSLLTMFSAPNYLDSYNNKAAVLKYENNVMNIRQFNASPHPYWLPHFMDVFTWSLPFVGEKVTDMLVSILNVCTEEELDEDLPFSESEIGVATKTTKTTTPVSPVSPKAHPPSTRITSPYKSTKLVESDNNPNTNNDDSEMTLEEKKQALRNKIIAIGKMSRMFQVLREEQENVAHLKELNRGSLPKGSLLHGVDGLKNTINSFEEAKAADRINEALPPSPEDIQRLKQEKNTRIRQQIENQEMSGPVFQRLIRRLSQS

Streptokinase A = target: T2, Streptokinase A (Streptococcus pyogenes serotype M1, UniProt P10520); test: viability-normalized secreted streptokinase activity reduction – plasminogen activation absorbance, OD405, dose response (AID 1914); format: functional, Streptococcus pyogenes M1 GAS;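 note: secreted streptokinase activity via plasminogen activation per viability signal from cell pellet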
T2 sequence (P10520 whole entry): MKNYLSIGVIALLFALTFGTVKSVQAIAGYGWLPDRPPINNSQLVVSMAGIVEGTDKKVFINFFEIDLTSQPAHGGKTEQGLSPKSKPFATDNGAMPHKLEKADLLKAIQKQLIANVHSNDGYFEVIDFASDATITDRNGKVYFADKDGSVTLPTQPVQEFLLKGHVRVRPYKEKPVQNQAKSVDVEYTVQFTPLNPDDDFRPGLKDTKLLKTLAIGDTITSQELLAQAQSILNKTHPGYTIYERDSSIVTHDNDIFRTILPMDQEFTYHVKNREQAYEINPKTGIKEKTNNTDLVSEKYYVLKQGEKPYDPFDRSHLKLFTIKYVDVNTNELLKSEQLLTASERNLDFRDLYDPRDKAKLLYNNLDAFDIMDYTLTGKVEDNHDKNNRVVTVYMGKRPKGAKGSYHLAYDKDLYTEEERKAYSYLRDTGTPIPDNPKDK

[2] = fluconazole-exposed Candida albicans growth modulators – fluorescence, retest, confirmation (AID 2467); format: functional, cell-based
[3] = NIH-3T3 fibroblast cytotoxicity, dose response, cytotoxicity control, cell-based, fluorescence, Alamar Blue, secondary assay (AID 2327); format: functional;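 note: NIH-3T3 mouse fibroblasts cultured with fluconazole at 8 µg/mL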
[4] = target: ATP-dependent molecular chaperone HSP82 (Candida albicans (strain WO-1) (Yeast), UniProt C4YTQ8); test: steroid-induced GRE reporter decrease in yeast – S. cerevisiae, luminescence, Hsp90 inhibitor project, dose response (AID 2400); format: functional, cell-based;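 note: beta-galactosidase luminescence from glucocorticoid response element reporter as proxy for Hsp90 function; inhibitor potency where signal loss means Hsp90 inhibition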
[5] = system: Streptococcus sp. 'group A'; test: Streptococcus pyogenes SK(-)GAS viability under kanamycin – luminescence, BacTiterGlo, confirmation, counter-screen for streptokinase expression inhibitor project, dose response (AID 1900); format: functional, organism-based
Streptococcus = test: GAS UMAA2166 growth inhibition – luminescence, BacTiterGlo, counter-screen for streptokinase expression inhibitor project, dose response (AID 1915); format: functional, organism-based;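 note: potency for reduction of bacterial viability or growth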
[6] = Trypanosoma cruzi growth suppression in host cells – NIH3T3 host cells, beta-gal luminescence, confirmation (AID 2044); format: functional, cell-based;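 note: intracellular parasites grown in NIH/3T3 mouse fibroblasts as host cells; luminescent beta-galactosidase reporter signal from transgenic T. cruzi replicating inside host cells; inhibitors lower the luminescence signal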
[7] = NIH3T3 cell viability loss – ATP luminescence, mouse fibroblasts, counter-screen, dose response (AID 2010); format: functional, cell-based;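 note: cells exposed to compound for about 90 hours before reading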
[8] = target: Dual specificity tyrosine-phosphorylation-regulated kinase 1A (Rattus norvegicus, UniProt Q63470); format: biochemical, Homo sapiens
Vero = test: viability of Vero cells under compound – cytotoxicity control for flavivirus capping enzyme inhibitors (AID 588742); format: functional; details: Chlorocebus sabaeus
Genome polyprotein = Genome polyprotein (dengue virus type 2, UniProt P29990); test: flavivirus cap methylation enzyme inhibition – biochemical, confirmation dose response, primary screen (AID 588689); format: functional
Escherichia coli = test: microbe, parasite or virus in culture
[9] = target: FAD-linked sulfhydryl oxidase ALR (Homo sapiens, UniProt P55789); test: ALR-catalysed DTT oxidation blockers – biochemical, H2O2 detection, luminescence, cherry-pick, dose response (AID 493248)
[10] = target: T3, Endoribonuclease toxin MazF (Escherichia coli K-12, UniProt P0AE70); test: activation of MazEF endoribonuclease cleavage – biochemical, fluorescence, single-stranded RNA substrate, uHTS hits, dose response (AID 588481); format: functional
T3 sequence (P0AE70 whole entry): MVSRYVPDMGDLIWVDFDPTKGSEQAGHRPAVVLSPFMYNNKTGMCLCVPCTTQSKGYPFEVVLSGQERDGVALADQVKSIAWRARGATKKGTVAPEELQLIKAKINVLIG

[11] = target: T3, Endoribonuclease toxin MazF; test: substrate-only fluorescence increase artefacts – biochemical, single-stranded RNase substrate, counter-screen for MazEF activator project, dose response (AID 588502); format: functional
HEK293 = test: EBV LMP1 TES2 canonical NF-kB signalling blockers – cell-based, HEK293, luciferase, cherry-pick, dose response (AID 588343); format: functional; details: Homo sapiens

ATP-dependent molecular chaperone HSP82, sequence (C4YTQ8 whole entry): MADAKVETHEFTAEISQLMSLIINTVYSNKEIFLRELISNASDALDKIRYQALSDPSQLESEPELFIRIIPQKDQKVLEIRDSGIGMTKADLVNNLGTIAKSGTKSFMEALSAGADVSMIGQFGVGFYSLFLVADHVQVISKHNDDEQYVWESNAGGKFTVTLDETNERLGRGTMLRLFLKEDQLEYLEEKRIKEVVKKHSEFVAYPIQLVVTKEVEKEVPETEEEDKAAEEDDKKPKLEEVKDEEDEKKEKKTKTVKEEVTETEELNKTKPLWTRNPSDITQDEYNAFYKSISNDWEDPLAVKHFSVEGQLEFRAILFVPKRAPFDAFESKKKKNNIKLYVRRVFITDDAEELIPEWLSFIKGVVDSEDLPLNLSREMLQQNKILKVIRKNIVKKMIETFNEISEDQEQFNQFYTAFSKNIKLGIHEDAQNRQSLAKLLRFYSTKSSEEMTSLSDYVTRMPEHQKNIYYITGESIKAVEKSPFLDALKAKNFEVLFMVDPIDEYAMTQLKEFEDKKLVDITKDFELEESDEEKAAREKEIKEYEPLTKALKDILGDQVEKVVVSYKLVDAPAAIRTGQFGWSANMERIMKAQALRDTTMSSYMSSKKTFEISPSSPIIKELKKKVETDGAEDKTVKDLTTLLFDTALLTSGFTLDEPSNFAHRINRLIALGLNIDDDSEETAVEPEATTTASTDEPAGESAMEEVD
Genome polyprotein, sequence (P29990 2492-3391 limits assumed): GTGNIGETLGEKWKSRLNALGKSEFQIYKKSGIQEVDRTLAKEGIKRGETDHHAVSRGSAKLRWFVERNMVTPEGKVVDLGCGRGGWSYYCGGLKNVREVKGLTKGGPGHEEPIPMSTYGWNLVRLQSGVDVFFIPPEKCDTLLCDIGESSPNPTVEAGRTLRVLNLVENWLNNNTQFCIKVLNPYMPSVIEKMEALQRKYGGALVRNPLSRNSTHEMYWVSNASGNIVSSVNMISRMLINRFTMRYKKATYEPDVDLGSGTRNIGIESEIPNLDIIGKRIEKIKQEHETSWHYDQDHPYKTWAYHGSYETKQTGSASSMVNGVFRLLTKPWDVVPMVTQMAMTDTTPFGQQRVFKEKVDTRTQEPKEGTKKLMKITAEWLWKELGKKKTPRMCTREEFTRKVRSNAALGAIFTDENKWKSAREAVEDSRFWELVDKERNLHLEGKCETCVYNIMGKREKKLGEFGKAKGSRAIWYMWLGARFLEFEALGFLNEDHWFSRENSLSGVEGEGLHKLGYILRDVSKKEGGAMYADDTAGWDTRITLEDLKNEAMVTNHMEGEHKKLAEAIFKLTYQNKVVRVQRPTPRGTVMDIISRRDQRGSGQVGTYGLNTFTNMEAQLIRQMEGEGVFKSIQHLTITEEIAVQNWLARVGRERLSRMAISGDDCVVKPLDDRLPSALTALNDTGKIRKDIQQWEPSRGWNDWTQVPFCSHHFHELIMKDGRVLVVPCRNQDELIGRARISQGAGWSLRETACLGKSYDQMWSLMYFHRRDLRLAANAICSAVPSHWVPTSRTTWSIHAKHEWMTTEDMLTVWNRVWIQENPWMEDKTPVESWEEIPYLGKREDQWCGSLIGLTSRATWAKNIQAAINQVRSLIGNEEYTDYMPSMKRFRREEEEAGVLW
FAD-linked sulfhydryl oxidase ALR, sequence (P55789 whole entry): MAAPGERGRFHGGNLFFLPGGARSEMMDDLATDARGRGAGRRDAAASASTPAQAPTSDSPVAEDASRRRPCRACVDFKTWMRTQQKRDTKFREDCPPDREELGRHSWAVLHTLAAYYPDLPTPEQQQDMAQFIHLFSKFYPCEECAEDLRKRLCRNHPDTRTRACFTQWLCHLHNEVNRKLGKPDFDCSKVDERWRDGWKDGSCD

Compound | EC50 [1] | EC50 [2] | EC50 [3] | EC50 [4] | AC50 [8] | further results
O=C(Nc1nnc(-c2ccco2)o1)c1ccc(Cl)cc1 | > 180 µM (inactive) | 0.9 µM (active) | > 150 µM (inactive) | > 150 µM (inactive) |  | EC50 (Streptokinase A): > 150 µM (not active); EC50 [5]: 0.983 µM (active); EC50 (Streptococcus): 15.6 µM (active)
O=C1NC(=O)/C(=C\c2ccc(Br)o2)S1 | > 180 µM (inactive) | 1.3 µM (active) | 87.3 µM (inconclusive) | > 150 µM (inactive) | 4.62 µM (active) | EC50 [6]: 21.7 µM (active); EC50 [7]: > 60 µM (not active)
CCCCCCCCn1c(=O)c(C(=O)OCC)c(O)c2ccccc21 |  |  |  |  |  | CC50 (Vero): > 40 µM (active); IC50 (Genome polyprotein): 77.2 µM (active)
Cc1cc(C(C#N)c2ccccc2F)n2ncnc2n1 (stereo unspecified) | > 180 µM (inactive) | 1.28 µM (active) | > 150 µM (inconclusive) | > 160 µM (inactive) |  | AC50 (Escherichia coli): 36.4 µM (active); AC50 [9]: 34.3 µM (active)
Cc1ccc(S(=O)(=O)N2CCN(CC(=O)NC(=O)NCc3ccccc3)CC2)cc1C |  |  |  |  |  | EC50 [10]: > 99 µM (inactive); EC50 [11]: > 99 µM (inactive)
c1ccc2c(-c3ccncc3)c[nH]c2c1 |  |  |  |  | 2.41 µM (active) | AC50 (HEK293): 144 µM (active)
